Columns and labels:
Canis familiaris [1] = experiment: Compound was evaluated for diuretic activity, in female mongrel dogs by measuring volume of urine, after iv administration of 5 mg/kg (control/compound treatment results) Control = 1; assay type: ADME, organism-based, Canis lupus familiaris; set-up: dose 5 mg/kg, route intravenous; conditions: dog, in vivo
[2] = volume of urine at 3 mg/kg; assay type: ADME, organism-based; set-up: dose 3 mg/kg; conditions: in vivo
[3] = volume of urine at 81 mg/kg; assay type: ADME, organism-based; set-up: dose 81 mg/kg; conditions: in vivo
[4] = volume of urine at 9 mg/kg; assay type: ADME, organism-based; set-up: dose 9 mg/kg; conditions: in vivo
Pan troglodytes [5] = experiment: Compound was evaluated for diuretic activity in chimpanzee measured as increase in volume of urine at 1 mg/kg; assay type: functional
Pan troglodytes [6] = experiment: Compound was evaluated for diuretic activity in chimpanzee measured as clearance of […] and urate after intra venous administration of 1.25 mg/kg.; assay type: functional, Urine
Pan troglodytes [7] = experiment: Compound was evaluated for diuretic activity in chimpanzee measured as clearance of […] and urate after peroral administration of 5 mg/kg; assay type: functional, Urine; conditions: route oral
Pan troglodytes [8] = experiment: Compound was evaluated for diuretic activity in chimpanzee measured as increase in the number of microequivalents of Na+ /min at 1.25 mg/kg; assay type: functional, Urine
Pan troglodytes [9] = experiment: Compound was evaluated for diuretic activity in chimpanzee measured as increase in the number of microequivalents of Na+ /min at 5 mg/kg; assay type: functional, Urine
Pan troglodytes [10] = experiment: Compound was evaluated for diuretic activity in chimpanzee measured as increase in the number of microequivalents of cl- /min at 1.25 mg/kg; assay type: functional, Urine
Pan troglodytes [11] = experiment: Compound was evaluated for diuretic activity in chimpanzee measured as increase in volume of urine at 0.125 mg/kg; assay type: functional
Pan troglodytes [12] = experiment: Compound was evaluated for diuretic activity in chimpanzee measured as increase in the number of microequivalents of Cl- electrolyte/min at 5 mg/kg; assay type: functional, Urine
Pan troglodytes [13] = experiment: Compound was evaluated for diuretic activity in chimpanzee measured as increase in the number of microequivalents of K+ /min at 1.25 mg/kg; assay type: functional, Urine
Canis familiaris [14] = experiment: Compound was evaluated for diuretic activity, in female mongrel dogs by measuring amount of Cl- in urine after iv administration of 5 mg/kg (control/compound treatment results) Control = 8; assay type: functional, Canis lupus familiaris
Pan troglodytes [15] = experiment: Compound was evaluated for diuretic activity in chimpanzee measured as increase in the number of microequivalents of K+ /min at 5 mg/kg; assay type: functional, Urine
Canis familiaris [16] = experiment: Compound was evaluated for diuretic activity, in female mongrel dogs by measuring amount of Na+ in urine after iv administration of 5 mg/kg (control/compound treatment results) Control = 42; assay type: functional, Canis lupus familiaris
Canis familiaris [17] = experiment: Compound was evaluated for diuretic activity, in female mongrel dogs by measuring amount of K+ in urine after iv administration of 5 mg/kg (control/compound treatment results) Control = 5; assay type: functional, Canis lupus familiaris
Rattus norvegicus [18] = experiment: Compound was evaluated for diuretic activity administered orally in female rats measured as milliequivalents of Na+x 100 / cage at 81 mg/kg; assay type: functional, Urine; conditions: route oral
Rattus norvegicus [19] = experiment: Compound was evaluated for diuretic activity administered orally in female rats measured as milliequivalents of Na+x 100 / cage at 9 mg/kg; assay type: functional, Urine; conditions: route oral
Rattus norvegicus [20] = experiment: Compound was evaluated for diuretic activity administered orally in female rats measured as milliequivalents of Cl-+x 100 / cage at 27 mg/kg; assay type: functional, Urine; conditions: route oral
Rattus norvegicus [21] = experiment: Compound was evaluated for diuretic activity administered orally in female rats measured as milliequivalents of Cl-x 100 / cage at 3 mg/kg; assay type: functional, Urine; conditions: route oral
Rattus norvegicus [22] = experiment: Compound was evaluated for diuretic activity administered orally in female rats measured as milliequivalents of Cl-x 100 / cage at 81 mg/kg; assay type: functional, Urine; conditions: route oral
Rattus norvegicus [23] = experiment: Compound was evaluated for diuretic activity administered orally in female rats measured as milliequivalents of Cl-x 100 / cage at 9 mg/kg; assay type: functional, Urine; conditions: route oral
Rattus norvegicus [24] = experiment: Compound was evaluated for diuretic activity administered orally in female rats measured as milliequivalents of K+x 100 / cage at 27 mg/kg; assay type: functional, Urine; conditions: route oral
Rattus norvegicus [25] = experiment: Compound was evaluated for diuretic activity administered orally in female rats measured as milliequivalents of K+x 100 / cage at 3 mg/kg; assay type: functional, Urine; conditions: route oral
Rattus norvegicus [26] = experiment: Compound was evaluated for diuretic activity administered orally in female rats measured as milliequivalents of K+x 100 / cage at 81 mg/kg; assay type: functional, Urine; conditions: route oral
Rattus norvegicus [27] = experiment: Compound was evaluated for diuretic activity administered orally in female rats measured as milliequivalents of K+x 100 / cage at 9 mg/kg; assay type: functional, Urine; conditions: route oral
Rattus norvegicus [28] = experiment: Compound was evaluated for diuretic activity administered orally in female rats measured as milliequivalents of Na+x 100 / cage at 27 mg/kg; assay type: functional, Urine; conditions: route oral
Rattus norvegicus [29] = experiment: Compound was evaluated for diuretic activity administered orally in female rats measured as milliequivalents of Na+x 100 / cage at 3 mg/kg; assay type: functional, Urine; conditions: route oral
[30] = volume of urine at 27 mg/kg; assay type: ADME, organism-based; set-up: dose 27 mg/kg; conditions: in vivo
Canis familiaris [31] = experiment: Compound was evaluated for diuretic activity, in female mongrel dogs by measuring volume of urine, after iv administration of 5 mg/kg (control/compound treatment results) Control = 2; assay type: ADME, organism-based, Canis lupus familiaris; set-up: dose 5 mg/kg, route intravenous; conditions: dog, in vivo
Pan troglodytes [32] = experiment: Compound was evaluated for diuretic activity in chimpanzee measured as increase in volume of urine at 5 mg/kg; assay type: functional
Pan troglodytes [33] = experiment: Compound was evaluated for diuretic activity in chimpanzee measured as clearance of […] and urate after intra venous administration of 5 mg/kg.; assay type: functional, Urine
Pan troglodytes [34] = experiment: Compound was evaluated for diuretic activity in chimpanzee measured as increase in the number of microequivalents of Na+ /min at 1 mg/kg; assay type: functional, Urine
Pan troglodytes [35] = experiment: Compound was evaluated for diuretic activity in chimpanzee measured as increase in the number of microequivalents of Cl- /min at 5 mg/kg; assay type: functional, Urine
Pan troglodytes [36] = experiment: Compound was evaluated for diuretic activity in chimpanzee measured as increase in the number of microequivalents of Cl- electrolyte/min at 1 mg/kg; assay type: functional, Urine
Pan troglodytes [37] = experiment: Compound was evaluated for diuretic activity in chimpanzee measured as increase in the number of microequivalents of K+ /min at 1 mg/kg; assay type: functional, Urine
Canis familiaris [38] = experiment: Compound was evaluated for diuretic activity, in female mongrel dogs by measuring amount of K+ in urine after iv administration of 5 mg/kg (control/compound treatment results) Control = 13; assay type: functional, Canis lupus familiaris
Canis familiaris [39] = experiment: Compound was evaluated for diuretic activity, in female mongrel dogs by measuring amount of Cl- in urine after iv administration of 5 mg/kg (control/compound treatment results) Control = 5; assay type: functional, Canis lupus familiaris
Canis familiaris [40] = experiment: Compound was evaluated for diuretic activity, in female mongrel dogs by measuring amount of Na+ in urine after iv administration of 5 mg/kg (control/compound treatment results) Control = 59; assay type: functional, Canis lupus familiaris
Pan troglodytes [41] = experiment: Compound was evaluated for diuretic activity in chimpanzee measured as increase in volume of urine at 1.25 mg/kg; assay type: functional
Pan troglodytes [42] = experiment: Compound was evaluated for diuretic activity in chimpanzee measured as clearance of […] and urate after intravenous administration of 1.25 mg/kg; assay type: functional, Urine
Pan troglodytes [43] = experiment: Compound was evaluated for diuretic activity in chimpanzee measured as increase in the number of microequivalents of Cl- electrolyte/min at 1.25 mg/kg; assay type: functional, Urine
Canis familiaris [44] = experiment: Compound was evaluated for diuretic activity, in female mongrel dogs by measuring amount of K+ in urine after iv administration of 5 mg/kg (control/compound treatment results) Control = 10; assay type: functional, Canis lupus familiaris
Canis familiaris [45] = experiment: Compound was evaluated for diuretic activity, in female mongrel dogs by measuring amount of Cl- in urine after iv administration of 5 mg/kg (control/compound treatment results) Control = 4; assay type: functional, Canis lupus familiaris
Canis familiaris [46] = experiment: Compound was evaluated for diuretic activity, in female mongrel dogs by measuring amount of Na+ in urine after iv administration of 5 mg/kg (control/compound treatment results) Control = 22; assay type: functional, Canis lupus familiaris
Canis familiaris [47] = species: Canis familiaris; experiment: volume of urine in dog; assay type: ADME, organism-based, Canis lupus familiaris; conditions: in vivo
Canis familiaris [48] = experiment: Compound was evaluated for diuretic activity, in female mongrel dogs by measuring amount of K+ in urine after iv administration of 5 mg/kg (control/compound treatment results) Control = 11; assay type: functional, Canis lupus familiaris
Canis familiaris [49] = experiment: Compound was evaluated for diuretic activity, in female mongrel dogs by measuring amount of Cl- in urine after iv administration of 5 mg/kg (control/compound treatment results) Control = 62; assay type: functional, Canis lupus familiaris
Canis familiaris [50] = experiment: Compound was evaluated for diuretic activity, in female mongrel dogs by measuring amount of Na+ in urine after iv administration of 5 mg/kg (control/compound treatment results) Control = 107; assay type: functional, Canis lupus familiaris
Canis familiaris [51] = experiment: Compound was evaluated for diuretic activity, administered orally in female mongrel dogs (5 mg/kg) measured as milliequivalents of Cl-; assay type: functional, Canis lupus familiaris, Urine
Canis familiaris [52] = experiment: Compound was evaluated for diuretic activity, administered orally in female mongrel dogs (5 mg/kg) measured as milliequivalents of K; assay type: functional, Canis lupus familiaris, Urine
Canis familiaris [53] = experiment: Compound was evaluated for diuretic activity, administered orally in female mongrel dogs (5 mg/kg) measured as milliequivalents of Na; assay type: functional, Canis lupus familiaris, Urine

Row | SMILES | Urine volume (Canis familiaris [1]) [mL/min] | Urine volume [2] [mL] | Urine volume [3] [mL] | Urine volume [4] [mL] | Increase in volume (Pan troglodytes [5]) [mL/min] | Delta C urate / delta C insulin (Pan troglodytes [7]) | Increase (Pan troglodytes [8]) | Increase (Pan troglodytes [9]) | Increase (Pan troglodytes [12]) | Increase (Pan troglodytes [13]) | Increase (Pan troglodytes [15]) | Activity (Rattus norvegicus [18]) | Activity (Rattus norvegicus [19]) | Activity (Rattus norvegicus [20]) | Activity (Rattus norvegicus [21]) | Activity (Rattus norvegicus [22]) | Activity (Rattus norvegicus [23]) | Activity (Rattus norvegicus [24]) | Activity (Rattus norvegicus [25]) | Increase in volume (Pan troglodytes [32]) [mL/min] | further results
1 | CCC1(C)C(=O)c2cc(OCC(=O)O)c(Cl)c(Cl)c2C1=O (configuration not stated) | 2 | 30 | 31 | 29 | 2 | 0.007 | 187 | 217 | 226 | 41 | 30 | 164 | 80 | 130 | 64 | 250 | 97 | 43 | 46 |  | Delta C urate / delta C insulin (Pan troglodytes [6]): 0.43; Increase (Pan troglodytes [10]): 267; Increase in volume (Pan troglodytes [11]): 1.4 mL/min; Activity (Canis familiaris [14]): 179 u equiv min-1; Activity (Canis familiaris [16]): 247 u equiv min-1; Activity (Canis familiaris [17]): 7 u equiv min-1; Activity (Rattus norvegicus [26]): 89; Activity (Rattus norvegicus [27]): 35; Activity (Rattus norvegicus [28]): 101; Activity (Rattus norvegicus [29]): 50; Urine volume [30]: 27 mL
2 | Cc1c(OCc2nn[nH]n2)cc2c(c1Cl)C(=O)C1(CCCC1)C2=O |  |  |  |  | 0.6 | 0.026 |  | 5 |  |  | 2 |  |  |  |  |  |  |  |  | 0 | Urine volume (Canis familiaris [31]): 3 mL/min; Delta C urate / delta C insulin (Pan troglodytes [33]): 0.128; Increase (Pan troglodytes [34]): 119; Increase (Pan troglodytes [35]): 36; Increase (Pan troglodytes [36]): 172; Increase (Pan troglodytes [37]): 55; Activity (Canis familiaris [38]): 27 u equiv min-1; Activity (Canis familiaris [39]): 11 u equiv min-1; Activity (Canis familiaris [40]): 193 u equiv min-1
3 | CCC1(CC)C(=O)c2cc(OCC(=O)O)c(C)c(C)c2C1=O | 2 |  |  |  |  | 0.045 | 243 | 103 | 120 | 46 | 32 |  |  |  |  |  |  |  |  | 0.6 | Increase in volume (Pan troglodytes [41]): 2.2 mL/min; Delta C urate / delta C insulin (Pan troglodytes [42]): 0.258; Increase (Pan troglodytes [43]): 288; Activity (Canis familiaris [44]): 21 u equiv min-1; Activity (Canis familiaris [45]): 42 u equiv min-1; Activity (Canis familiaris [46]): 106 u equiv min-1
4 | CC1(c2ccccc2)Cc2cc(OCC(=O)O)c(Cl)c(Cl)c2C1=O (configuration not stated) [INDACRINONE] |  | 28 | 35 | 29 | 14.8 | 0.332 |  | 409 | 554 |  | 53 | 189 | 97 | 223 | 85 | 303 | 163 | 61 | 32 | 3.6 | Urine volume (Canis familiaris [47]): 267 mL; Urine volume (Canis familiaris [31]): 8 mL/min; Delta C urate / delta C insulin (Pan troglodytes [33]): 0.55; Increase (Pan troglodytes [34]): 2383; Increase (Pan troglodytes [36]): 2624; Increase (Pan troglodytes [37]): 171; Activity (Canis familiaris [48]): 62 u equiv min-1; Activity (Canis familiaris [49]): 1010 u equiv min-1; Activity (Canis familiaris [50]): 920 u equiv min-1; Activity (Canis familiaris [51]): 26; Activity (Canis familiaris [52]): 2.2; Activity (Canis familiaris [53]): 12; Activity (Rattus norvegicus [26]): 85; PActivity (Rattus norvegicus [27]): 50; Activity (Rattus norvegicus [28]): 129; Activity (Rattus norvegicus [29]): 86; Urine volume [30]: 31 mL
